The results in this text go back to publication PMC11125126, “Synthesis, Characterisation, and In Vitro Evaluation of Biocompatibility, Antibacterial and Antitumor Activity of Imidazolium Ionic Liquids” (Pharmaceutics, 2024).

Like-named read-outs stand apart in the source and are kept apart here.

One series has as its system MCF7 cancer cells. Description: Direct cytotoxicity test of IL powders, Alamar blue assay. The class given is cell-based, human. Conditions: Homo sapiens, 24 h of incubation. As for the experimental part: (§1) Cytotoxicity studies on IL powders were carried out using human dermal fibroblast (HDF) cells (Sigma-Aldrich) and a human breast cancer cell line (MCF7). In addition, ILs loaded in PVC polymer substrates were tested for their cytocompatibility and adhesion properties on the HDF. HDF cells were cultured in 75 cm^2 cell culture flask in Dulbecco’s Modified Eagle’s Medium (DMEM) supplemented with 20% Foetal Bovine Serum (FBS), 1% non-essential amino acid (NEAA), antibiotic solution (streptomycin 100 µg/mL and penicillin 100 U/mL, Sigma Aldrich) and 2 mM L-glutamine. MCF7 cells were grown in DMEM with 10% FBS and the same antibiotics as mentioned above. The cells were maintained in a culture at 37 °C, with 5% CO2 and 95% humidity to achieve a confluent layer. Control cells were cultured in a complete medium without any compounds in tissue culture plates. Before biological testing, the samples were sterilised using a UV light for 2 h.
(§2) A direct cytotoxicity test was used to assess the in vitro cytotoxicity of IL powders. IL powders with different alkyl chains were dissolved in DMEM media to obtain solutions at various concentrations (0.5–1–5 and 10 µg/mL) to determine the best formulation.
(§3) After 24 h of incubation of IL solutions (200 µL) with seeded cells under specific environmental conditions (T = 37 °C, HR = 95%, CO2 = 5%), cell viability was tested using the Alamar blue assay (AbD Serotec, Milan, Italy) following the manufacturer’s instructions.
(§4) In summary, each well received a 200 µL aliquot of Alamar Blue^TM diluted 1:10 in phenol red-free medium and was incubated for 4 h at 37 °C, 5% CO2. Following this, 100 µL of the solution was transferred to a 96-well plate for colorimetric analysis. Wells with no cells were included to account for any background interference from the redox indicator. Optical density was immediately measured using a spectrophotometer (Victor X3, Perkin Elmer, Waltham, MA, USA) at 560 and 595 nm wavelengths. The results were presented as a percentage of cell viability compared to that of the control (cells grown on tissue culture plates).
(§5) Here, the antitumor activity and cytotoxicity of the synthetised imidazolium-based ionic liquids have been determined for breast cancer cells (MCF-7) and healthy human fibroblast (HDF) cells. […] Table 5 reports the IC50 values in µg/mL and µM to make their comparison with the literature data easy.

For a further series, the system named is HDF cells. Described as above. Conditions: Homo sapiens, 24 h of incubation. The class given is cell-based, human. How it is done:
as §1, §2, §3, §4, §5

The next series relates to Escherichia coli. Description: MIC/MBC by broth dilution, pure ILs. The format is cell-based. The settings on record: 24 h; for MBC: read-out: MBC; for MIC: read-out: MIC. From the text:
(§6) Within the Di3A (Dipartimento di Agricoltura, Alimentazione e Ambiente, University of Catania, Italy) microbial collection, two Gram-negative strains (Escherichia coli and Pseudomonas fluorescens) and one Gram-positive strain (Listeria monocytogenes) were studied in order to define the potential efficacy of ionic liquids in relation to the different structure of the bacterial cell wall.
(§7) For the pure ILs, the minimal inhibitory concentration (MIC) and minimal bactericidal concentration (MBC) were determined in Nutrient Broth (NB, Oxoid, Basingstoke, UK) medium by broth dilution method, according to the Clinical and Laboratory Standards Institute (CLSI).
(§8) All the bacterial strains were individually grown for 24 h at 35 or 27 °C for P. fluorescens, with shaking. After the incubation period, the cells were collected by centrifugation and re-suspended in sterile NB to obtain a stock culture of 10^9 CFU/mL.
(§9) Tubes containing 5 mL of NB with decreasing concentrations of ILs (1000, 500, 250, 125, 50, 25, 12.5, 5 and 0 µg/mL) were inoculated with each bacterial stock culture at a final concentration of 10^6 CFU/mL.
(§10) Tubes were incubated at 35 or 27 °C in an orbital shaker and evaluated for the viable count of E. coli, P. fluorescens, and L. monocytogenes after 24 h by spread-plating 100 µL of each suspension on Nutrient Agar (NA, Oxoid, Basingstoke, UK) incubated for 24–48 h at 35 or 27 °C.
(§11) In this study, MIC and MBC are expressed in both µg/mL and µM to make the comparison with the literature data easy. Each experiment was performed in triplicate.
In general terms: Dilution methods test growth across graded concentrations, often in twofold steps.

A further series has as its system Listeria monocytogenes. Description: MIC/MBC by broth dilution, pure ILs. The settings on record: 24 h; for MBC: read-out: MBC; for MIC: read-out: MIC. The class given is cell-based.
Description: as §6, §7, §8, §9, §10, §11

A short description of series [1]: Thermogravimetric analysis (TGA), thermal stability. The class given is physicochemical. The settings on record: neat ILs; single-step degradation; 10 °C/min, nitrogen. As for the experimental part: Thermal stability and kinetic parameters of the synthesised ILs were investigated using the TA instruments Q500 thermogravimetric analyser (Milan, Italy). A certain amount of sample (4–5 mg) was placed in a platinum pan and heated at 10 °C min^−1 from 40 to 600 °C under a flow of nitrogen (60 mL/min).
Thermogravimetric analyses were performed to evaluate the thermal stability of ILs and PVC/IL blends. Before testing, the samples were subjected to drying cycles in a vacuum stove for 24 h at 50–60 °C, according to the thermal features of ILs, mainly considering their melting points. The ILs C9mimBF4, C10mimBF4, C9mimDMSIP, and C10mimDMSIP, which are liquid at RT, were left to dry at 30 °C for 4–5 h. […] Considering this, the 40–600 °C degradation temperature range was adopted for the subsequent TGA analyses. […] Furthermore, platinum pans and nitrogen as purge gas were used, and the temperature at which 5% weight loss occurred was defined as Tonset, aiming to avoid the decomposition differences due to pan and gas types, as well as the uncertainty from the manual determination of the Tonset tangent point, respectively. Many features can influence the thermal stability of ILs, mainly the coordinating nature of the anion. Indeed, the highly coordinating halide anions (Cl, Br) display a thermal stability lower than that of poor coordinating anions (PF6). The type of cation core influences the thermal stability of ILs, with a decreasing temperature resistance in the following order: pyrrolidinium, imidazolium, pyridinium, and non-cyclic tetra-alkyl ammonium. The increasing alkyl chain length of the imidazolium cation and branching of the alkyl substituents induce a reduction in thermal stability. Furthermore, a decrease in thermal stability is determined by the presence of alkoxylated side chains in methylimidazolium, piperidinium, and pyrrolidinium cations.
As the industrial production of end products usually involves processing methodologies during which undesirable degradation processes could affect materials’ performance, the thermal stability of neat PVC and PVC/IL film blends was analysed. As detailed for TGA analyses of pure ILs, the stability of the PVC/IL blends was determined at heating runs of 10 °C/min from 40 to 600 °C under a nitrogen atmosphere using a platinum pan. These things considered, the temperature at 5% weight loss was considered as Tonset.

Setting [2] is: NI = no inhibition at IL maximum concentration used (1000 µM).

With `CCCCCCCCCCn1cc[n+](C)c1.F[B-](F)(F)F` [C10mimBF4], the half-maximal inhibitory concentration (IC50) in the series with MCF7 cancer cells (n = 3) was 7.39 µg/mL; in the series with MCF7 cancer cells (n = 3, mean ± SD) it was 23.8 µM; in the series with HDF cells (n = 3) it was 13.5 µM; with HDF cells (n = 3, mean ± SD), 4.18 ± 0.03 µg/mL. Also, the MBC with Escherichia coli (10^6 CFU/mL) was 155 µg/mL; in the series with Escherichia coli (setting [2]) it was 500 µM; in the series with Listeria monocytogenes (10^6 CFU/mL), 155 µg/mL; in the series with Listeria monocytogenes (setting [2]), 500 µM. Further, the MIC in the series on Escherichia coli (10^6 CFU/mL) worked out at 77.5 µg/mL; in the series with Escherichia coli (setting [2]) it was 250 µM; with Listeria monocytogenes (10^6 CFU/mL), 77.5 µg/mL; in the series with Listeria monocytogenes (setting [2]) it was 250 µM. For the same compound, the “Td, maximum degradation temperature” value in series [1] was 417.2 °C.

Broadly, the IC50 is the concentration at which inhibition is half-maximal. The MBC is the lowest tested concentration that kills the bacteria rather than only halting them. Broadly, the MIC is the smallest concentration in the dilution series that meets the test's criterion for growth inhibition.
